Entries after “also recorded” stand apart in the source; their conditions may differ.
Key:
[1] = tested on: ERα knock-out (ERKO) C57BL/6 mice; experiment: effects in ERα knock-out (ERKO) mice; type: in vivo; details: 3 weeks; listed as PaPE-1
Method: FIG. 13. Effects of PaPE-1 require ERα. […] Animals were on normal chow diet. Change in body weight was monitored. (B) Uterus weights of animals from (A) at the end of 3 weeks of vehicle (Veh) or ligand treatment. (C) Triglyceride levels in the blood of animals from (A) after 3 weeks of ligand exposure.
Studies used wild type and ERα knockout mice in C57BL/6 background. All experiments involving animals were conducted in accordance with National Institutes of Health standards for the use and care of animals, with protocols approved by the University of Illinois at Urbana-Champaign and the University of Texas Southwestern Medical Center. Wild-type C57BL/6 mice were purchased from Jackson Laboratories/National Cancer Institute. ERα knockout mice with complete excision of ERα and wild type littermates were obtained from Taconic and were used as described previously in Dupont et al., Development, 127, 4277-4291, […], and Hewitt et al. FASEB J., 24, 4660-4667, 2010.

ERα and RAPTOR = target: T1, ERα and RAPTOR (Homo sapiens, UniProt P03372); experiment: proximity ligation assay in MCF-7 cells; type: cell-based; details: 10 nM E2 or 1 μM PaPE-1, 15 min
T1 construct: endogenous in cells; host or cells: MCF-7
T1 sequence (P03372 1-595): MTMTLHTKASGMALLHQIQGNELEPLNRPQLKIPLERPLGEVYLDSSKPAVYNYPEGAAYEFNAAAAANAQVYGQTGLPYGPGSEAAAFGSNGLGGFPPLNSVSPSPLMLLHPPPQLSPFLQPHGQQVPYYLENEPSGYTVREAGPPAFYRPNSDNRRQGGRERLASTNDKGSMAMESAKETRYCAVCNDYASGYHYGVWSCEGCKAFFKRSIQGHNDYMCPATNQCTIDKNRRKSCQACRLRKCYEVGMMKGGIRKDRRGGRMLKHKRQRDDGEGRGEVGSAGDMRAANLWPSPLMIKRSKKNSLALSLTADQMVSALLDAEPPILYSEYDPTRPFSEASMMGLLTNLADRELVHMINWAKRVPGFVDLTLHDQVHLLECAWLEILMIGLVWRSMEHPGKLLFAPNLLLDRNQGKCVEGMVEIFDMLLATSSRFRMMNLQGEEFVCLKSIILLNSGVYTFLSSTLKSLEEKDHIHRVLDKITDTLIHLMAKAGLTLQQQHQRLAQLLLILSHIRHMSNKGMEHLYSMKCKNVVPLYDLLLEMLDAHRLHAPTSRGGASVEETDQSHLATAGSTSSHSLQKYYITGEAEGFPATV
Method: Next day, the proximity ligation assay (PLA) was performed using the Duolink In Situ kit (Olink Bioscience) according to the manufacturer's instructions, as described in Zhao et. al., Endocrinology, 154, 1349-1360, 2013. Briefly, overnight incubation with primary antibodies was followed by hybridization with two PLA probes at 37° C. for 1 h, and then by ligation for 15 min and amplification for 90 min at 37° C. A coverslip was mounted on each slide and image acquisition and analysis conducted. Samples were imaged using a 63×/1.4 Oil DIC M27 objective in a Zeiss LSM 700 or 710 laser scanning confocal microscope. Images were obtained in a sequential manner using a 488 Ar (10 mW) laser line for PLA signal. The individual channels for DAPI and PLA signal were obtained using a sequential scanning mode to prevent bleed-through of the excitation signal. Laser power, gain and offset were kept constant across the samples and scanned in a high resolution format of 512×512 or 1024×1024 pixels with 2/4 frames averaging. Further quantification of the images used Fiji software (http://fiji.sc/wiki/index.php/Fiji). Briefly, images were converted to 8 bit for segmentation for each channel, and images were background subtracted using a rolling-ball method, with a pixel size of 100 and segmented using the DAPI channel.

MCF-7 cells = experiment: MCF-7 cell proliferation, WST-1 assay; type: cell-based, human; details: 6 days
Method: Cells were seeded at 1000 cells/well in 96-well plates.

Cc1cc(-c2ccc3c(c2)CCC3O)cc(C)c1O (racemic) [Compound 2, 5-(4-hydroxy-3,5-dimethylphenyl)-2,3-dihydro-1H-inden-1-ol]
ability to diminish body weight gain after ovariectomy in ERKO mice [1]: lost in the ERKO mice; also recorded: require ERα
interaction of ERα with RAPTOR (ERα and RAPTOR): to a greater extent; also recorded: induces interaction between ERα and Raptor
proliferation of MCF-7 cells (MCF-7 cells): did not stimulate proliferation

From patent US10703698B2, “Compounds which activate estrogen receptors and compositions and methods of using the same” (The Board of Trustees of the University of Illinois, priority 2016, dated 2020)
